Test results reported in ChEMBL document CHEMBL6087433, “Discovery of ART0380, a Potent and Selective ATR Kinase Inhibitor Undergoing Phase 2 Clinical Studies for the Treatment of Advanced or Metastatic Solid Cancers” (J Med Chem, 2024).
Values after ≈ are worked out from the molar mass of the structure shown.

Tests used:
[1] = in vivo; details: beagle, dog, iv, 1 mg/kg
[2] = in vitro; details: human, CCD-18Co cells
[3] = physchem; details: Fed State Simulated Intestinal Fluid
[4] = in vivo; details: CD-1, mouse, po, 10 mg/kg
[5] = in vivo; details: Sprague-Dawley, rat, po, 10 mg/kg
[6] = biological target: Phosphatidylinositol 3-kinase catalytic subunit type 3 (Homo sapiens, UniProt Q8NEB9)
[7] = in vivo; details: CD-1, mouse, po, 10 mg/kg; remark: listed apart in the source
[8] = physchem; details: aqueous buffer, pH 7.4
[9] = system: NCI-H23; test: cells; details: Homo sapiens
[10] = in vivo; details: cynomolgus monkey, po, 10 mg/kg
[11] = biological target: Phosphatidylinositol 4,5-bisphosphate 3-kinase catalytic subunit gamma isoform (Homo sapiens, UniProt P48736)
[12] = in vivo; details: Sprague-Dawley, rat, plasma, iv, 1 mg/kg
[13] = biological target: Phosphatidylinositol 4,5-bisphosphate 3-kinase catalytic subunit alpha isoform (Homo sapiens, UniProt P42336)
[14] = in vivo; details: Beagle, dog, po, 10 mg/kg
[15] = physchem; details: octanol/phosphate buffer, pH 7.4
[16] = system: Granta-519; test: cells; details: Homo sapiens
[17] = biological target: T1, Cytochrome P450 1A2 (Homo sapiens, UniProt P05177)
T1 sequence (P05177 whole entry): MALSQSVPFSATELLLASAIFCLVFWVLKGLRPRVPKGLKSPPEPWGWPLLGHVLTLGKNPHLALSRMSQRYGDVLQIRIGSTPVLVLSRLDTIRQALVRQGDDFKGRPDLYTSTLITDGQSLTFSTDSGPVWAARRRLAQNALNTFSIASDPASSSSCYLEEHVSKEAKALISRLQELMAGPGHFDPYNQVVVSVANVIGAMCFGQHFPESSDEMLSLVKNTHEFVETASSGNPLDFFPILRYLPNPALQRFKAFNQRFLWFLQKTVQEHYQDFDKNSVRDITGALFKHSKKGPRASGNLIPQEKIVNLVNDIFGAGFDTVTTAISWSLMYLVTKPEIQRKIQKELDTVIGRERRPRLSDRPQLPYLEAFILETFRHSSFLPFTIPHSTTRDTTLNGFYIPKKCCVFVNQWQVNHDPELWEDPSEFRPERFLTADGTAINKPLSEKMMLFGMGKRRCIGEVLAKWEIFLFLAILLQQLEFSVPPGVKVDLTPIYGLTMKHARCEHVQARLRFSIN

[18] = in vitro; details: human, Caco-2
[19] = system: LoVo; test: animal or person; details: Mus musculus, po, 480 h, read-out: TGI
[20] = in vivo; details: CD-1, mouse, plasma, iv, 1 mg/kg
[21] = in vivo; details: CD-1, mouse, po, 30 mg/kg
[22] = in vivo; details: Sprague-Dawley, rat, iv, 1 mg/kg
[23] = in vitro; details: dog, hepatocytes

Chain of Phosphatidylinositol 4,5-bisphosphate 3-kinase catalytic subunit gamma isoform (P48736 whole entry, canonical isoform): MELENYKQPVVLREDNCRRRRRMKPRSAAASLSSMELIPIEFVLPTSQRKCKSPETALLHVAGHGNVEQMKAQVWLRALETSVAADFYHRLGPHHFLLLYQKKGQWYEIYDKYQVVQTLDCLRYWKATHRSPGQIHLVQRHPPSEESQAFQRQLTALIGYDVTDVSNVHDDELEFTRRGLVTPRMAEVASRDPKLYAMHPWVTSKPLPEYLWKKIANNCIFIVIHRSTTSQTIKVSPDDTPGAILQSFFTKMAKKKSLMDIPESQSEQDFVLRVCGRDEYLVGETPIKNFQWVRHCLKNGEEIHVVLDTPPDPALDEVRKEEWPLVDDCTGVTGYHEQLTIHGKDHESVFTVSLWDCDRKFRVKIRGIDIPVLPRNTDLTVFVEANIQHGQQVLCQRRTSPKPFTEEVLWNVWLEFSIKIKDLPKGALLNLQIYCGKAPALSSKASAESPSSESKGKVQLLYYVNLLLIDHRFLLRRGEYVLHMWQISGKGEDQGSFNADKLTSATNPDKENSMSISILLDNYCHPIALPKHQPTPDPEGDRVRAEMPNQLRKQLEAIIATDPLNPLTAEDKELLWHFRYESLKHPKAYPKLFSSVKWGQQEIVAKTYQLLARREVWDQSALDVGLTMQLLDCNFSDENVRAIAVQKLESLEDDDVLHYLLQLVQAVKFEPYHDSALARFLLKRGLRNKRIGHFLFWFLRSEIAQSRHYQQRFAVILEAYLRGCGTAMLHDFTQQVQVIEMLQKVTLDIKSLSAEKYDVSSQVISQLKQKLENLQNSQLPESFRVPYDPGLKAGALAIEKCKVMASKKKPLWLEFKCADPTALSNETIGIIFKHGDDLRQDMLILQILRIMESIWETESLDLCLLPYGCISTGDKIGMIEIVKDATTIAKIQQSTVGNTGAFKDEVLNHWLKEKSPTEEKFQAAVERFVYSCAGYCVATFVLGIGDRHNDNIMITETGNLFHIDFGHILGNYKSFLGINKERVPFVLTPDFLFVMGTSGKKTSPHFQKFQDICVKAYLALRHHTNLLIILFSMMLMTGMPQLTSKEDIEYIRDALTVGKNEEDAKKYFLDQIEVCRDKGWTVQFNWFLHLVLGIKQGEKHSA
Chain of Phosphatidylinositol 4,5-bisphosphate 3-kinase catalytic subunit alpha isoform (P42336 whole entry, canonical isoform): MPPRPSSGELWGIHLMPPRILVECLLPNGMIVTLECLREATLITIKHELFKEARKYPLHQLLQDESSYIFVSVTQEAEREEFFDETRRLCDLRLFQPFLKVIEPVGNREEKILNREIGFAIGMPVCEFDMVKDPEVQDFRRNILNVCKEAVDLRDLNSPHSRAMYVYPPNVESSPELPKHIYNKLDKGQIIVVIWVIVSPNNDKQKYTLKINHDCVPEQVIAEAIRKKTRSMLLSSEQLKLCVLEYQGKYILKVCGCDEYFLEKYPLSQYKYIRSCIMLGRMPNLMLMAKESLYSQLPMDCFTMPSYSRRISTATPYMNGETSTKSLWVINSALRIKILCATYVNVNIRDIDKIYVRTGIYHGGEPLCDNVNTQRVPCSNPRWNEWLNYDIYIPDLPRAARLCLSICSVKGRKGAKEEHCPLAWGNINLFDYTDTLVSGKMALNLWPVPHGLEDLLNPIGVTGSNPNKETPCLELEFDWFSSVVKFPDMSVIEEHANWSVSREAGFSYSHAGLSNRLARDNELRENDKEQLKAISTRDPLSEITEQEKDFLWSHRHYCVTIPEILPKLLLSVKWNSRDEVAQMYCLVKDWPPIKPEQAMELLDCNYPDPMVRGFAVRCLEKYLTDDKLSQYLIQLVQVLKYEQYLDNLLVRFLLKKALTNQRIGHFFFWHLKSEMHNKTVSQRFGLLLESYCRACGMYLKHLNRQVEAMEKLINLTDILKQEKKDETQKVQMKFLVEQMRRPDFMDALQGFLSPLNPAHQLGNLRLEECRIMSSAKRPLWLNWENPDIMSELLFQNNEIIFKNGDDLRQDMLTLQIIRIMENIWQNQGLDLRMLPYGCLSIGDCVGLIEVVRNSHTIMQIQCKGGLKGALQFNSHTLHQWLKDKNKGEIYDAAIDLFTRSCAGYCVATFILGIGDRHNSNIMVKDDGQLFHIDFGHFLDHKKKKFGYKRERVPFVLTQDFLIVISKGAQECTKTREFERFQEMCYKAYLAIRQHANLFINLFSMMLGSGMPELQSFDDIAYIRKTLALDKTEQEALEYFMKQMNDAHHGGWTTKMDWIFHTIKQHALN
Chain of Phosphatidylinositol 3-kinase catalytic subunit type 3 (Q8NEB9 whole entry): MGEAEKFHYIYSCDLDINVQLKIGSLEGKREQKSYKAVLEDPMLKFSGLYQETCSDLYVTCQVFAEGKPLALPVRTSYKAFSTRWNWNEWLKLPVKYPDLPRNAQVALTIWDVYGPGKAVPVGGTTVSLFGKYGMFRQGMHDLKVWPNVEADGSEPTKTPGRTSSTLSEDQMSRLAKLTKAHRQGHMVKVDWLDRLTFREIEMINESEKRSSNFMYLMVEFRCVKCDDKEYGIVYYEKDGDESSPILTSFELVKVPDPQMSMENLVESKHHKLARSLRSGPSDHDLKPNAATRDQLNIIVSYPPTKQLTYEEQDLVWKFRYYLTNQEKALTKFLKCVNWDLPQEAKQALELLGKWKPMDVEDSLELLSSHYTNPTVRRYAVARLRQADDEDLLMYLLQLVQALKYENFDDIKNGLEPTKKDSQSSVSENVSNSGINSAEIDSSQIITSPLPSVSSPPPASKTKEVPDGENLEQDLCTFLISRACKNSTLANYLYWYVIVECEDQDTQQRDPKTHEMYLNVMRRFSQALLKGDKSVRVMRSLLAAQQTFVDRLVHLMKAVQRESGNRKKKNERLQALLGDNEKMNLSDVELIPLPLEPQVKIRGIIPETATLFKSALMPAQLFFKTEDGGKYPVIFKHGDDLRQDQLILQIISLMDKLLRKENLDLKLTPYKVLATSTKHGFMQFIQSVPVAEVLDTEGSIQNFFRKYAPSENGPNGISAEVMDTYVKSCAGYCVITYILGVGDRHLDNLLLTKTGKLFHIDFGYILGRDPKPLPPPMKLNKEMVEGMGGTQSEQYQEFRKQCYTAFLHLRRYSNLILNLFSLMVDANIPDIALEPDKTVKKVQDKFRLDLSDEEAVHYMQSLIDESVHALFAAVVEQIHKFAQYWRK

Vd [1]: 3.6 L/kg
EC50 at 7 days [2]: 6.92 µM
solubility thermodynamic [3]: > 5000 µg/mL
AUC(0-t) [4]: 4.25 µM·h
AUC(0-t) [5]: 3.78 µM·h
IC50 [6]: > 50 µM
Tmax [7]: 15 min
solubility thermodynamic [8]: 1500 µg/mL (≈ 3.86 mM)
EC50 [9]: 0.14 µM
Tmax [10]: 49.8 min
IC50 [11]: > 50 µM
clearance [12]: 98 mL/min/kg
IC50 [13]: 29 µM
Cmax [14]: 1930 nM
logD [15]: 1.62
EC50 [16]: 0.448 µM
IC50 [17]: > 10 µM
Papp B→A at 10 µM [18]: 34 ×10⁻⁶ cm/s
clearance [20]: 69 mL/min/kg
AUC(0-t) [21]: 25.3 µM·h
half-life [22]: 36 min
CLint scaled [23]: 6 mL/min/kg
Structure (SMILES): C[C@@H]1COCCN1c1cc(N=[S@@](C)(=O)C2CC2)nc(-c2ccnc(N)c2)n1
inhibition in vivo at 30 mg/kg [19]: 72%
